From the supplement of paper PMC13380429

Key:
[1] = system: A549-ACE2 infected with SARS-CoV-2; assay: cell count relative to DMSO; higher = less toxic; details: 24 h
Caco-2 [2] = assay: cell viability relative to DMSO; higher = less toxic; details: 72 h
Calu-3 [3] = assay: as above; details: 72 h
HepG2 [4] = assay: as above; details: 72 h
U2OS [5] = assay: as above; details: 72 h
Vero E6 [6] = assay: as above; details: 72 h
[7] = system: A549-ACE2 infected with SARS-CoV-2; assay: SARS-CoV-2 infection rate relative to DMSO; higher = more infection; details: 24 h
A549-ACE2 [8] = assay: phospholipidosis EC50; higher = less potent phospholipidosis inducer
A549-ACE2 [9] = assay: drug-induced phospholipidosis relative to tamoxifen; higher = more phospholipidosis
[10] = system: A549-ACE2 infected with SARS-CoV-2; assay: morphology score (similarity to uninfected cells); higher = more like uninfected cells; details: 24 h
Caco-2 [11] = assay: relative viability EC50 (midpoint between 100% and the lowest measured viability); higher = less toxic; details: 72 h
Calu-3 [12] = assay: as above; details: 72 h
HepG2 [13] = assay: as above; details: 72 h
U2OS [14] = assay: as above; details: 72 h
Vero E6 [15] = assay: as above; details: 72 h
Caco-2 [16] = assay: drug sensitivity score (DSS) for viability; higher = more toxic; extreme values may be limits of the assay; details: 72 h
Calu-3 [17] = assay: as above; details: 72 h
HepG2 [18] = assay: as above; details: 72 h
U2OS [19] = assay: as above; details: 72 h
Vero E6 [20] = assay: as above; details: 72 h

C[C@@H]1C[C@H]2[C@@H]3CCC4=CC(=O)C=C[C@]4(C)[C@@]3(Cl)[C@@H](O)C[C@]2(C)[C@@]1(OC(=O)c1ccco1)C(=O)CCl [MOMETASONE FUROATE]
Details	SARS-CoV-2 infection rate [%]	cell count [%]	cell viability [%]	morphology score	phospholipidosis EC50 [µM]
A549-ACE2 [8], 24 h	–	–	–	–	3.35
Caco-2 [2], 1 nM	–	–	91.3	–	–
Caco-2 [2], 10 nM	–	–	109	–	–
Caco-2 [2], 100 nM	–	–	85.6	–	–
Caco-2 [2], 1000 nM	–	–	96	–	–
Caco-2 [2], 10000 nM	–	–	83.1	–	–
Calu-3 [3], 1 nM	–	–	98.7	–	–
Calu-3 [3], 10 nM	–	–	101	–	–
Calu-3 [3], 100 nM	–	–	90.3	–	–
Calu-3 [3], 1000 nM	–	–	97.1	–	–
Calu-3 [3], 10000 nM	–	–	90.9	–	–
HepG2 [4], 1 nM	–	–	114	–	–
HepG2 [4], 10 nM	–	–	116	–	–
HepG2 [4], 100 nM	–	–	122	–	–
HepG2 [4], 1000 nM	–	–	97.4	–	–
HepG2 [4], 10000 nM	–	–	105	–	–
U2OS [5], 1 nM	–	–	98.5	–	–
U2OS [5], 10 nM	–	–	101	–	–
U2OS [5], 100 nM	–	–	94	–	–
U2OS [5], 1000 nM	–	–	102	–	–
U2OS [5], 10000 nM	–	–	92.8	–	–
Vero E6 [6], 1 nM	–	–	109	–	–
Vero E6 [6], 10 nM	–	–	100	–	–
Vero E6 [6], 100 nM	–	–	103	–	–
Vero E6 [6], 1000 nM	–	–	102	–	–
Vero E6 [6], 10000 nM	–	–	100	–	–
[1], 0.3 µM	–	97	–	–	–
[1], 3 µM	–	103	–	–	–
[1], 10 µM	–	108	–	–	–
[1], 30 µM	–	94	–	–	–
[7], 0.3 µM	99	–	–	–	–
[7], 3 µM	69	–	–	–	–
[7], 10 µM	28	–	–	–	–
[7], 30 µM	71	–	–	–	–
[10], 0.3 µM	–	–	–	0.19	–
[10], 3 µM	–	–	–	0.42	–
[10], 10 µM	–	–	–	0.6	–
[10], 30 µM	–	–	–	0.34	–

drug-induced phospholipidosis [%], A549-ACE2 [9]
Details	0.3 µM	0.833333 µM	3.33333 µM	6.66667 µM	10 µM	30 µM
24 h	10.4	17.5	33.2	53.3	54.9	51.9
48 h	5.23	13.8	27.7	41.1	38.5	41.2
72 h	-4	-3.08	16.9	30.4	39.5	29.6

Details	drug sensitivity score	relative viability EC50 [µM]
Caco-2 [11]	–	> 10
Caco-2 [16]	0.5	–
Calu-3 [12]	–	> 10
Calu-3 [17]	0	–
HepG2 [13]	–	> 10
HepG2 [18]	0	–
U2OS [14]	–	> 10
U2OS [19]	0	–
Vero E6 [15]	–	> 10
Vero E6 [20]	0	–

COc1ccccc1C1(O)CCN(CCCn2c3ccccc3c3ccccc32)CC1 [NNC-05-2090]
Details	SARS-CoV-2 infection rate [%]	cell count [%]	cell viability [%]	morphology score	phospholipidosis EC50 [µM]
A549-ACE2 [8], 24 h	–	–	–	–	1.98
A549-ACE2 [8], 48 h	–	–	–	–	3.85
A549-ACE2 [8], 72 h	–	–	–	–	4.18
Caco-2 [2], 1 nM	–	–	97.4	–	–
Caco-2 [2], 10 nM	–	–	91.7	–	–
Caco-2 [2], 100 nM	–	–	109	–	–
Caco-2 [2], 1000 nM	–	–	83.1	–	–
Caco-2 [2], 10000 nM	–	–	68.4	–	–
Calu-3 [3], 1 nM	–	–	94.1	–	–
Calu-3 [3], 10 nM	–	–	99.9	–	–
Calu-3 [3], 100 nM	–	–	90.7	–	–
Calu-3 [3], 1000 nM	–	–	89.1	–	–
Calu-3 [3], 10000 nM	–	–	7.5	–	–
HepG2 [4], 1 nM	–	–	94.9	–	–
HepG2 [4], 10 nM	–	–	99.7	–	–
HepG2 [4], 100 nM	–	–	90.4	–	–
HepG2 [4], 1000 nM	–	–	99.9	–	–
HepG2 [4], 10000 nM	–	–	40.8	–	–
U2OS [5], 1 nM	–	–	99.4	–	–
U2OS [5], 10 nM	–	–	94.1	–	–
U2OS [5], 100 nM	–	–	102	–	–
U2OS [5], 1000 nM	–	–	94.6	–	–
U2OS [5], 10000 nM	–	–	82.9	–	–
Vero E6 [6], 1 nM	–	–	90.9	–	–
Vero E6 [6], 10 nM	–	–	97.5	–	–
Vero E6 [6], 100 nM	–	–	88.1	–	–
Vero E6 [6], 1000 nM	–	–	92.1	–	–
Vero E6 [6], 10000 nM	–	–	74.5	–	–
[1], 0.1 µM	–	98	–	–	–
[1], 0.3 µM	–	106	–	–	–
[1], 1 µM	–	109	–	–	–
[1], 3 µM	–	119	–	–	–
[7], 0.1 µM	98	–	–	–	–
[7], 0.3 µM	98	–	–	–	–
[7], 1 µM	86	–	–	–	–
[7], 3 µM	34	–	–	–	–
[10], 0.1 µM	–	–	–	0.12	–
[10], 0.3 µM	–	–	–	0.04	–
[10], 1 µM	–	–	–	0.29	–
[10], 3 µM	–	–	–	0.85	–

drug-induced phospholipidosis [%], A549-ACE2 [9]
Details	0.3 µM	0.833333 µM	3.33333 µM	6.66667 µM	10 µM
24 h	3.96	10.5	87.6	108	101
48 h	4.69	12.2	64.2	102	116
72 h	5.37	9.7	49.7	106	121

Details	drug sensitivity score	relative viability EC50 [µM]
Caco-2 [16]	3.4	–
Calu-3 [12]	–	2.19
Calu-3 [17]	7	–
HepG2 [13]	–	3.14
HepG2 [18]	3.2	–
U2OS [14]	–	> 10
U2OS [19]	0.9	–
Vero E6 [20]	1.9	–

c1ccc(-c2ccc(C(c3ccccc3)n3ccnc3)cc2)cc1 (stereo not drawn) [bifonazole]
Details	SARS-CoV-2 infection rate, [7] [%]	cell count, [1] [%]	cell viability, Caco-2 [2] [%]	cell viability, Calu-3 [3] [%]	cell viability, HepG2 [4] [%]	cell viability, U2OS [5] [%]	cell viability, Vero E6 [6] [%]	morphology score, [10]
1 nM	–	–	98	98.4	98.2	96.9	85.9	–
10 nM	–	–	99.7	95	97.1	95.9	91.2	–
100 nM	–	–	96.1	106	91.8	97.2	86.5	–
0.3 µM	91	99	–	–	–	–	–	0.26
1000 nM	–	–	94.9	97.1	98.6	95.2	91.5	–
3 µM	103	112	–	–	–	–	–	-0.04
10 µM	106	111	–	–	–	–	–	0.19
10000 nM	–	–	78.7	99.1	93.6	94.7	100	–
30 µM	89	102	–	–	–	–	–	0.57

drug-induced phospholipidosis [%], A549-ACE2 [9]
Details	0.3 µM	0.833333 µM	3.33333 µM	6.66667 µM	10 µM	30 µM
24 h	-0.45	-9.45	-4.39	3.56	6	40.1
48 h	3.19	-4.19	2.93	5.02	14.4	44.7
72 h	2.27	-1.31	4.12	5.49	19.7	–

Details	drug sensitivity score	relative viability EC50 [µM]
Caco-2 [11]	–	> 10
Caco-2 [16]	1.2	–
Calu-3 [12]	–	> 10
Calu-3 [17]	0	–
HepG2 [13]	–	> 10
HepG2 [18]	0	–
U2OS [14]	–	> 10
U2OS [19]	0	–
Vero E6 [15]	–	> 10
Vero E6 [20]	0	–
